US8404711B2, “5-HT4 receptor agonist compounds for treatment of cognitive disorders” (priority 2009, dated 2013)
“Also recorded” adds a separate entry of the source. Counter-ions that a name gives are not always drawn.

Tests used:
[1] = tested on: scopolamine-induced cognitive impairment (rat Morris water maze); assay: rat Morris water maze model, scopolamine-induced cognitive impairment; format: in vivo; details: for effect on scopolamine-induced memory impairment: 0.03 mg/kg plus scopolamine 0.5 mg/kg; for effect on ability of rats to learn platform location when administered alone: no scopolamine; for reversal of scopolamine-induced cognitive impairment with coadministered 5-HT4 antagonist: compound 0.1 mg/kg i.p. plus GR125487 1 mg/kg i.p. and scopolamine 0.5 mg/kg
Description: Adult, male Sprague-Dawley rats (body weight range 275-400 g) were handled by the investigator for approximately 5 minutes one day prior to each study. […] A clear Perspex® platform was located in a fixed position 1 cm below the surface of the water, and 34 cm from the wall of the tank. Four visual cues (A4-sized pictures of different black and white symbols) were equally spaced on the wall of the tank, just above the water surface. Black curtains were placed around the tank and white noise was generated throughout the test. Each rat was released into the water, facing the tank wall, at a designated starting point (i.e., at the north side of the tank), and allowed 60 seconds to locate the submerged platform after each placement. The escape latency (in seconds) between release of the rat into the water and its locating the platform was recorded automatically by means of a video camera (San Diego Instrument, CA) and tracking software (SMART software, San Diego Instrument, CA). […] The rats were allowed to remain on the platform for 30 seconds to observe the external visual cues and pair them with the relative position of the platform. The rats were then taken off the platform and dried gently with a paper towel before repeating the test three more times (from south, then east and finally west starting positions). After the fourth test, each rat was placed under a heating lamp for 5 minutes before being returned to its home cage. The entire procedure was repeated on days 2 and 3. Over the three days of testing, rats learned to associate the location of the submerged platform (and their only means to escape the water) with the visual cues. […] The number of crossings of the previous platform location and the time spent by the rat in each quadrant were recorded. Animals that had learned the location of the platform spent more time in the appropriate quadrant and repeatedly crossed that quadrant. By performing the probe test, false positives could be excluded from the analysis (i.e., rats that had previously located the platform via a strategy independent of the visual cues, such as swimming randomly until a leg hit the platform). No animals were excluded based on conflicting data between the three days of testing and the probe test. […] The following statistical tests were performed on the data: […] A two-way repeated-measures ANOVA, followed by a Bonferroni post-hoc test, was used to compare the mean escape latency for each of the three successive test days, with p<0.05 indicating a statistically significant difference. […] Pat. […] Pat. […] Donepezil hydrochloride was purchased from Changzhou Dahua Imp. and Exp. Corp. Ltd. […] Louis, Mo.) or Spectrum Chemical Mfg. Corp. (Gardena, Calif.). GR125487 sulfamate was purchased from Tocris (Ellisville, Mo.). […] Doses were expressed with respect to the free base weights of each compound.

human 5-HT4(d) receptor = human 5-HT4(d) receptor (Homo sapiens, UniProt Q13639); assay: cell-based
Description: HEK-293 (human embryonic kidney) cells stably-transfected with human 5-HT4(d) receptor cDNA and human APP695 cDNA (HEK293-5-HT4(d)-APP695) were grown in Dulbecco's Modified Eagles Medium (DMEM) containing D-glucose supplemented with 10% fetal bovine serum, 2 mM GlutaMax-1, and 100 units penicillin (100 μg), and 100 μg/mL streptomycin in a 5% CO2, humidified incubator at 37° C. Cells were grown under continuous selection pressure by the addition of G418 (500 ug/mL) antibiotic.
HEK293-5-HT4(d)-APP695 cells (3×10^5 cells/well) were serum-starved for 4 hr prior to incubation with agonists for 30 min (unless otherwise stated) at 37° C. The culture medium was aspirated, centrifuged to remove cellular debris and the level of sAPPα determined by Western blot. sAPPα was detected using antibody 6E10 (Signet/Covance) and a goat anti-mouse HRP-conjugated 2° antibody. Immunoreactive bands corresponding to sAPPα were visualized and quantified with ECL substrate (Pierce) and a Fluor Chem HD2 image system (Alpha Innotech). Western blot analysis of samples was conducted in duplicate.
Potency data are reported as pEC50 values, the negative decadic logarithm of the EC50 value, where EC50 is the effective concentration for a 50% maximal response. […] To determine EC50 values, data from independent experiments were fit simultaneously to a sigmoidal concentration response curve using Graph Pad Prism software (slope constrained to unity).

[2] = 0.01 mg/kg plus scopolamine 0.5 mg/kg
[3] = 0.1 mg/kg plus scopolamine 0.5 mg/kg
[4] = 1 mg/kg plus scopolamine 0.5 mg/kg

human 5-HT4(d) receptor, sequence (Q13639 1-360 isoform Q13639-3): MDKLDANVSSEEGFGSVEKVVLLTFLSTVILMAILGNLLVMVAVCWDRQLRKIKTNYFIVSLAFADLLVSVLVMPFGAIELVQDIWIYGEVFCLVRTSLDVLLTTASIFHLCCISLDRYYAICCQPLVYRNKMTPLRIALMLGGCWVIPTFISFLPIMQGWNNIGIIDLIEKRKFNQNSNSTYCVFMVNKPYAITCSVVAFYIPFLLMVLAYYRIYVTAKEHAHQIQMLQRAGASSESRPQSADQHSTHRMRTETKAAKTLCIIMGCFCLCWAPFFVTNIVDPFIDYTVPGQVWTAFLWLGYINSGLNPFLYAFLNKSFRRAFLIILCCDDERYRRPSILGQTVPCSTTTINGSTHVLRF

Compound | effect on scopolamine-induced cognitive decline when administered alone [1, 2] | effect on scopolamine-induced memory impairment [1] | effect on scopolamine-induced memory impairment, mean escape latency day 3 [1, 3] | effect on ability of rats to learn platform location when administered alone ([1]; 1 mg/kg i.p.) | effect on scopolamine-induced memory impairment, mean escape latency day 3 [1, 4] | reversal of scopolamine-induced cognitive impairment with coadministered 5-HT4 antagonist [1] | further results
CC(C)n1c(=O)c(C(=O)N[C@H]2C[C@H]3CC[C@@H](C2)N3C[C@@H](O)CN(C)S(C)(=O)=O)cc2ccccc21 [Compound 1, 1-isopropyl-2-oxo-1,2-dihydroquinoline-3-carboxylic acid {(1S,3R,5R)-8-[(R)-2-hydroxy-3-(methanesulfonyl-methyl-amino)propyl]-8-azabicyclo[3.2.1]oct-3-yl}amide] | Neither compound 1 at a dose of 0.01 mg/kg nor donepezil at a dose of 0.1 mg/kg were found to have a significant effect | attenuated the memory impairment | achieved statistical significance | had no effect | attenuated the memory impairment | abolished | effect on scopolamine-induced memory impairment, mean escape latency day 3 ([1]; 1 mg/kg plus scopolamine 0.5 mg/kg, listed as compound 1): had no effect
COC(=O)N1CCC(CN2CCC(CNC(=O)c3cccc4[nH]c(C(C)C)nc34)CC2)CC1 [Compound 2, 4-(4-{[(2-isopropyl-1H-benzoimidazole-4-carbonyl)amino]methyl}-piperidin-1-ylmethyl)piperidine-1-carboxylic acid methyl ester] | Neither compound 2 at a dose of 0.01 mg/kg nor donepezil at a dose of 0.1 mg/kg were found to have a significant effect | attenuated the memory impairment | achieved statistical significance | had no effect | had no effect | abolished | effect of antagonist GR113808 on compound-evoked sAPPα release (human 5-HT4(d) receptor; 10 min 1 μM GR113808 before compound at 100 nM): completely blocked; sAPPα release, concentration dependence (human 5-HT4(d) receptor; HEK293 cells with human 5-HT4(d) receptors and human APP695): concentration-dependent increase; Emax (human 5-HT4(d) receptor; read-out: Emax (% response relative to 1 μM 5-HT)): 103%
COc1[nH]c2ccc(F)cc2c1C(=O)OCC1CCN(CCNS(C)(=O)=O)CC1 [GR125487, reference compound] |  |  |  |  |  |  | effect in Morris water maze when administered alone ([1]; GR125487 1 mg/kg i.p. alone): had no effect
CN1[C@@H]2C[C@@H](OC(=O)[C@H](CO)c3ccccc3)C[C@H]1[C@@H]1O[C@@H]12 [Scopolamine, scopolamine hydrochloride, reference compound] |  |  |  |  |  |  | attenuation of learning versus vehicle ([1]; 0.5 mg/kg i.p., p<0.025): statistically significant attenuation of learning
COc1cc2c(cc1OC)C(=O)C(CC1CCN(Cc3ccccc3)CC1)C2 (stereo not shown) [donepezil, donepezil hydrochloride, reference compound] |  |  |  |  |  |  | effect on scopolamine-induced cognitive decline when administered alone ([1]; 0.1 mg/kg plus scopolamine 0.5 mg/kg, hydrochloride): Neither compound 1 at a dose of 0.01 mg/kg nor donepezil at a dose of 0.1 mg/kg were found to have a significant effect; also recorded: Neither compound 2 at a dose of 0.01 mg/kg nor donepezil at a dose of 0.1 mg/kg were found to have a significant effect; reversal of scopolamine-induced cognitive deficit, mean escape latency day 3 ([1]; 3 mg/kg i.p. plus scopolamine 0.5 mg/kg): statistically significant reversal; effect on ability of rats to learn platform location when administered alone ([1]; 3 mg/kg i.p.): had no effect; reversal of scopolamine-induced cognitive deficit, mean escape latency day 3 ([1]; 0.3-3 mg/kg i.p. plus scopolamine 0.5 mg/kg i.p.): dose-dependent manner
